From BindingDB's records for doi:10.7270/Q25719HD (The Scripps Research Institute Molecular Screening Center, 2010)

Target: T1, Cytochrome b-245 heavy chain (Homo sapiens, UniProt P04839)
T1 sequence (P04839 whole entry): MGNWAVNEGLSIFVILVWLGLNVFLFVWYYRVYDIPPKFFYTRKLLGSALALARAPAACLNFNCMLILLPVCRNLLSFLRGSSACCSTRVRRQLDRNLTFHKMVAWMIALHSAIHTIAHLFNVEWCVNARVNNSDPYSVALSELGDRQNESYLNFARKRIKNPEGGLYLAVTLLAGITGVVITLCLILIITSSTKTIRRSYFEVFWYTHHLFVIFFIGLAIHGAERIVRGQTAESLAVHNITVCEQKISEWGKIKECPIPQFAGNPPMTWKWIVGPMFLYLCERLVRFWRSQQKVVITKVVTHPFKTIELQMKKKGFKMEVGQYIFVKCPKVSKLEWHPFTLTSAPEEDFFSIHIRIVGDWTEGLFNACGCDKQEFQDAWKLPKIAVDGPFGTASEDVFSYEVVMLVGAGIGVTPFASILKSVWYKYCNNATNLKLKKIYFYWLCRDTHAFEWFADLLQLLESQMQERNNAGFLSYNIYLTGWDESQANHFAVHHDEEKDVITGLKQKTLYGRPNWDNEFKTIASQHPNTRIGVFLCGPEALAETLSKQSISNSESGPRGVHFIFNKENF
Assay: PubChem AID 435013

Structure (SMILES) | IC50
CN(C)c1ccc(CN=Nc2c(Cl)cncc2Cl)cc1 | > 10 µM
Oc1c(Br)cc(CN=Nc2c(Cl)cncc2Cl)cc1Br [4-[[2-[3,5-bis(chloranyl)pyridin-4-yl]hydrazinyl]methylidene]-2,6-bis(bromanyl)cyclohexa-2,5-dien-1-one] | > 50 µM
